In ChEMBL document CHEMBL1148552, “Pulvinones as bacterial cell wall biosynthesis inhibitors” (Bioorg Med Chem Lett, 2006):
In brackets after ≈: the same amount, converted by molar mass.

What was measured:
Staphylococcus aureus [1] = test: Antibacterial activity against Staphylococcus aureus; assay type: functional; conditions: GC 4543
Streptococcus pneumoniae = test: Antibacterial activity against penicillin resistant Streptococcus pneumoniae; assay type: functional; conditions: GC 1894
Enterococcus faecalis [2] = test: Antibacterial activity against Enterococcus faecalis; assay type: functional; conditions: GC 4555
Staphylococcus aureus [3] = test: Antibacterial activity against methicillin resistant Staphylococcus aureus; assay type: functional; conditions: GC 1131
Enterococcus faecalis [4] = test: Antibacterial activity against vancomycin resistant Enterococcus faecalis; assay type: functional; conditions: GC 2242
[5] = target: T1, UDP-N-acetylmuramoylalanine--D-glutamate ligase (Escherichia coli K-12, UniProt P14900); test: Inhibitory activity against MurD in Escherichia coli
T1 sequence (P14900 whole entry): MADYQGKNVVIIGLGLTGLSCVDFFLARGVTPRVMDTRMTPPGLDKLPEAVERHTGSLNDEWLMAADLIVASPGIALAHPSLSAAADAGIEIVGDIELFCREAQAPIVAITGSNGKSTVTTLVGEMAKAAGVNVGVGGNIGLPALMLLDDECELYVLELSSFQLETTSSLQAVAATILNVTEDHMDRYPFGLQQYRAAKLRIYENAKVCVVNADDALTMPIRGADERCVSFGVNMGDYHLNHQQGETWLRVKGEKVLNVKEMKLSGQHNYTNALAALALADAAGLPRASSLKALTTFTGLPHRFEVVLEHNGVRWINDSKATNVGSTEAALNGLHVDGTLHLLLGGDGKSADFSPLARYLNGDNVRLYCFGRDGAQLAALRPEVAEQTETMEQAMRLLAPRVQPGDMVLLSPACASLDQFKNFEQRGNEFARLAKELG

[6] = target: UDP-N-acetylglucosamine 1-carboxyvinyltransferase (Escherichia coli K-12, UniProt P0A749); test: Inhibitory activity against MurA in Escherichia coli
[7] = target: UDP-N-acetylmuramate--L-alanine ligase (Escherichia coli K-12, UniProt P17952); test: Inhibitory activity against MurC in Escherichia coli
[8] = target: T2, UDP-N-acetylenolpyruvoylglucosamine reductase (Escherichia coli K-12, UniProt P08373); test: Inhibitory activity against MurB in Escherichia coli
T2 sequence (P08373 whole entry): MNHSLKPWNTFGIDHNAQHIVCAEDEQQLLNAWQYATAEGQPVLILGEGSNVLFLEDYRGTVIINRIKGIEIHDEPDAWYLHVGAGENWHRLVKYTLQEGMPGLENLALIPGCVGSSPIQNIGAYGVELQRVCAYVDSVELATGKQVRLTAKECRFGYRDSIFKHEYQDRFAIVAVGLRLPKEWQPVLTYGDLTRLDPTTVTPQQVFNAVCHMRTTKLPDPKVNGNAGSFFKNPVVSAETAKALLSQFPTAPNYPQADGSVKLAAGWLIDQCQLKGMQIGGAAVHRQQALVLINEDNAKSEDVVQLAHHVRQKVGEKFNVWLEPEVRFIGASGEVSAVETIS

UDP-N-acetylglucosamine 1-carboxyvinyltransferase, sequence (P0A749 whole entry): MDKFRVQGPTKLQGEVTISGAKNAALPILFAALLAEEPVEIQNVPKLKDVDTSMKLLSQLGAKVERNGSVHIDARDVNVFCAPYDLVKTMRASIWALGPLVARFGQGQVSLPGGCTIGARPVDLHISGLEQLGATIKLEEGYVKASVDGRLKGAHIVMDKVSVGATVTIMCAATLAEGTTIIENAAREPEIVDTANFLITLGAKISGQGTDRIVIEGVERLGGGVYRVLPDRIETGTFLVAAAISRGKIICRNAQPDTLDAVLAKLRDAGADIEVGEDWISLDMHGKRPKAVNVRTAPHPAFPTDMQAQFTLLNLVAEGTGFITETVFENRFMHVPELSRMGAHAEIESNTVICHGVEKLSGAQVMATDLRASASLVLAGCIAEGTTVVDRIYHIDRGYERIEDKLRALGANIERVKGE
UDP-N-acetylmuramate--L-alanine ligase, sequence (P17952 whole entry): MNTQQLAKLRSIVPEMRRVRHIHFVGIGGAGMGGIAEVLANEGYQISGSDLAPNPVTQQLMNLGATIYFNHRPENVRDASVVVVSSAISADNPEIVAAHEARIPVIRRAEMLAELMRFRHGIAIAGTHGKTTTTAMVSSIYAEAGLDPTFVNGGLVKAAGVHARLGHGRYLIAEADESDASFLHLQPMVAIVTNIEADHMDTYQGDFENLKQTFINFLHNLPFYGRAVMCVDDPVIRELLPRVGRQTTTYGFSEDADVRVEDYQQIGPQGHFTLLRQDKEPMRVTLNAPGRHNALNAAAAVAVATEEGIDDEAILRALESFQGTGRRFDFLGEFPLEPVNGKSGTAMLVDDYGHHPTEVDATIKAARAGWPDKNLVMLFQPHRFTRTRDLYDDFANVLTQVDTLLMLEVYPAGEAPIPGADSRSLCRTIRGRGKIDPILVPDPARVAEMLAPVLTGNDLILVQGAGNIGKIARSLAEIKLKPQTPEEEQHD

IC50 [7]	Compound	MIC (Staphylococcus aureus [1])	MIC (Streptococcus pneumoniae)	MIC (Enterococcus faecalis [2])	MIC (Staphylococcus aureus [3])	MIC (Enterococcus faecalis [4])	IC50 [5]	IC50 [6]	IC50 [8]
	O=C1O/C(=C\c2cccc(-c3cccc(Cl)c3)c2)C(O)=C1c1cccc(Cl)c1	1 µg/mL (≈ 2.44 µM)	1 µg/mL (≈ 2.44 µM)	8 µg/mL (≈ 19.5 µM)	> 128 µg/mL	4 µg/mL (≈ 9.77 µM)			
	O=C1O/C(=C\c2ccc(Cl)cc2)C(O)=C1c1ccc(-c2ccccc2)cc1	16 µg/mL (≈ 42.7 µM)	1 µg/mL (≈ 2.67 µM)	8 µg/mL (≈ 21.3 µM)	16 µg/mL (≈ 42.7 µM)	4 µg/mL (≈ 10.7 µM)	> 66.7 µM	> 66.7 µM	
≤ 30.3 µM	O=C1O/C(=C\c2ccccc2)C(O)=C1c1ccccc1 [PULVINONE]								
	O=C1O/C(=C\c2cccc(C(F)(F)F)c2)C(O)=C1c1cccc2ccccc12	64 µg/mL (≈ 167 µM)	8 µg/mL (≈ 20.9 µM)	> 128 µg/mL	32 µg/mL (≈ 83.7 µM)	32 µg/mL (≈ 83.7 µM)	> 65.4 µM	> 65.4 µM	> 65.4 µM
	O=C1O/C(=C\c2cccc(C(F)(F)F)c2)C(O)=C1c1ccc(-c2ccccc2)cc1	4 µg/mL (≈ 9.79 µM)	0.5 µg/mL (≈ 1.22 µM)	8 µg/mL (≈ 19.6 µM)	4 µg/mL (≈ 9.79 µM)	4 µg/mL (≈ 9.79 µM)	> 61.2 µM		12.2 µM
	O=C1O/C(=C\c2cc(C(F)(F)F)ccc2Cl)C(O)=C1c1ccc(-c2ccccc2)c(F)c1	1 µg/mL (≈ 2.17 µM)	0.25 µg/mL (≈ 0.543 µM)	4 µg/mL (≈ 8.68 µM)	1 µg/mL (≈ 2.17 µM)	1 µg/mL (≈ 2.17 µM)			
	O=C1O/C(=C\C2CCCCC2)C(O)=C1c1ccc2ccccc2c1	16 µg/mL (≈ 49.9 µM)	≤ 0.12 µg/mL	32 µg/mL (≈ 99.9 µM)	> 128 µg/mL	8 µg/mL (≈ 25 µM)			
	O=C1O/C(=C\c2cccc3ccccc23)C(O)=C1c1ccc(Cl)cc1	8 µg/mL (≈ 22.9 µM)	0.5 µg/mL (≈ 1.43 µM)	16 µg/mL (≈ 45.9 µM)	8 µg/mL (≈ 22.9 µM)	8 µg/mL (≈ 22.9 µM)	> 71.7 µM	> 71.7 µM	
	O=C1O/C(=C\c2cccc3ccccc23)C(O)=C1c1cccc(C(F)(F)F)c1	8 µg/mL (≈ 20.9 µM)	0.5 µg/mL (≈ 1.31 µM)	16 µg/mL (≈ 41.8 µM)	8 µg/mL (≈ 20.9 µM)	8 µg/mL (≈ 20.9 µM)	> 65.4 µM	> 65.4 µM	
	O=C1O/C(=C\c2cc(C(F)(F)F)ccc2F)C(O)=C1c1ccc(-c2ccccc2)c(F)c1	2 µg/mL (≈ 4.5 µM)	0.5 µg/mL (≈ 1.13 µM)	2 µg/mL (≈ 4.5 µM)	2 µg/mL (≈ 4.5 µM)	2 µg/mL (≈ 4.5 µM)			
	O=C1O/C(=C\c2cccc(C(F)(F)F)c2Cl)C(O)=C1c1ccc(-c2ccccc2)c(F)c1	1 µg/mL (≈ 2.17 µM)	0.25 µg/mL (≈ 0.543 µM)	2 µg/mL (≈ 4.34 µM)	1 µg/mL (≈ 2.17 µM)	0.5 µg/mL (≈ 1.09 µM)			
	O=C1O/C(=C\c2ccc3ccccc3c2)C(O)=C1c1cccc(C(F)(F)F)c1	8 µg/mL (≈ 20.9 µM)	0.5 µg/mL (≈ 1.31 µM)	16 µg/mL (≈ 41.8 µM)	8 µg/mL (≈ 20.9 µM)	4 µg/mL (≈ 10.5 µM)	> 65.4 µM	> 65.4 µM	
	O=C1O/C(=C\c2cccc(C(F)(F)F)c2)C(O)=C1c1ccc2ccccc2c1	8 µg/mL (≈ 20.9 µM)	8 µg/mL (≈ 20.9 µM)	32 µg/mL (≈ 83.7 µM)	8 µg/mL (≈ 20.9 µM)	8 µg/mL (≈ 20.9 µM)	> 65.4 µM		
	O=C1O/C(=C\c2ccc(-c3cc(Cl)cc(Cl)c3)cc2)C(O)=C1c1cc(Cl)cc(Cl)c1	0.5 µg/mL (≈ 1.05 µM)	≤ 0.12 µg/mL	1 µg/mL (≈ 2.09 µM)	4 µg/mL (≈ 8.37 µM)	0.5 µg/mL (≈ 1.05 µM)			
	O=C1O/C(=C\c2ccc(-c3ccccc3)cc2)C(O)=C1c1cccc2ccccc12	4 µg/mL (≈ 10.2 µM)	4 µg/mL (≈ 10.2 µM)	32 µg/mL (≈ 82 µM)	8 µg/mL (≈ 20.5 µM)	8 µg/mL (≈ 20.5 µM)	> 64 µM		> 64 µM
	O=C1O/C(=C\C2CCCCC2)C(O)=C1c1cccc(C(F)(F)F)c1	> 128 µg/mL	≤ 0.12 µg/mL	64 µg/mL (≈ 189 µM)	32 µg/mL (≈ 94.6 µM)	32 µg/mL (≈ 94.6 µM)	> 73.9 µM	> 73.9 µM	> 73.9 µM
17.7 µM	O=C1O/C(=C(/C(=O)Nc2cccc(C(F)(F)F)c2)c2ccccc2)C(O)=C1c1ccccc1								
	O=C1O/C(=C\c2ccc(-c3ccccc3)cc2)C(O)=C1c1ccc2ccccc2c1	4 µg/mL (≈ 10.2 µM)	2 µg/mL (≈ 5.12 µM)	8 µg/mL (≈ 20.5 µM)	16 µg/mL (≈ 41 µM)	4 µg/mL (≈ 10.2 µM)	> 64 µM	> 64 µM	
